Test system: carbon tetrachloride induced liver injury in CLEC1b fl/fl PF4cre mice
Test: Carbon tetrachloride injection in CLEC1b fl/fl PF4cre (KO) mice pre-treated with Etanercept
Type: in vivo, mouse
Details: for Number of neutrophils per gram of liver tissue: 48 hours after carbon tetrachloride injection
Method: Kupffer cells isolated from WT mouse livers were plated in a tissue culture well, treated with lipopolysaccharide (LPS) and incubated with either platelets from CLEC2 deficient animals or WT platelets. (A) Production of TNF-alpha by Kupffer cells was measured in response to LPS plus either CLEC-2 deficient (KO) platelets or WT platelets (n=4 per group). (B) Isolated Kupffer cells (F480^+, shown in green), were incubated with either CLEC2 deficient or WT platelets (CD41^+, shown in purple). DAPI (blue) was used as a nuclear stain. Representative images (63× magnification) are shown. (C) Serum was isolated from WT and CLEC1b fl/fl PF4cre (KO) mice at 24 hours after carbon tetrachloride injection and serum TNF-alpha levels measured by ELISA. Levels are shown as picograms/ml (n=6/group) (*P<0.05, **P<0.01, ***P<0.001), (D) CLEC1b fl/fl PF4cre mice were pre-treated with an anti-TNF-alpha monoclonal antibody (Etanercept) before carbon tetrachloride injection (KO+AB). WT and CLEC1b fl/fl PF4cre mice not pre-treated before carbon tetrachloride injection were used as controls (WT and KO, accordingly). Mice were sacrificed 48 hours after the carbon tetrachloride injection. […]
Mouse livers were harvested after the animal was euthanized under deep sedation after cardiac puncture. […] The resulting immune cells were then purified using an Optiprep gradient (Sigma) and analysed by flow cytometry. […] Absolute cell counts were determined with AccuCheck Counting Beads (Invitrogen), and the number of cells was normalised to the total liver weight. Data were analysed using a CyAn ADP flow cytometer (Beckman Coulter) or a BD LSRII using Summit version 4.3 or FlowJo version 10.0.7 software where appropriate.
Serum was isolated from whole blood and levels of liver-specific enzymes AST and ALT were measured on a clinical autoanalyser, according to standard protocols in the Biochemistry Department at the Birmingham Women's Hospital, Birmingham, UK. […]

Etanercept
Number of neutrophils per gram of liver tissue (compared to CLEC1b fl/fl PF4cre mice not pre-treated with antibody (FIG. 3D)): substantially reduced
Number of neutrophils per gram of liver tissue (pre-treated KO mice relative to WT control (FIG. 3D)): comparable to WT control
Serum ALT levels (48 hours post carbon tetrachloride, compared to CLEC-2 deficient mice not given antibody (FIG. 3E)): considerably higher

From US20190209680A1, “TREATMENT OF ACUTE LIVER FAILURE” (The University of Birmingham, priority 2016, published 2019)
